Our source for the IC50 values is BindingDB's records for doi:10.1021/jm0700924 (Astex Therapeutics, 2007).

The target of assay [1] is cAMP-dependent protein kinase catalytic subunit alpha (Bos taurus, UniProt P00517). In words: PKA In Vitro Enzyme Assay. Particulars: pH 7.2; 22 °C.
The target in assay [2] is RAC-beta serine/threonine-protein kinase (Homo sapiens, UniProt P31751). The assay is described as follows: PKB In Vitro Enzyme Assay. Particulars: pH 7.2; 22 °C.
RAC-beta serine/threonine-protein kinase, sequence (P31751 whole entry): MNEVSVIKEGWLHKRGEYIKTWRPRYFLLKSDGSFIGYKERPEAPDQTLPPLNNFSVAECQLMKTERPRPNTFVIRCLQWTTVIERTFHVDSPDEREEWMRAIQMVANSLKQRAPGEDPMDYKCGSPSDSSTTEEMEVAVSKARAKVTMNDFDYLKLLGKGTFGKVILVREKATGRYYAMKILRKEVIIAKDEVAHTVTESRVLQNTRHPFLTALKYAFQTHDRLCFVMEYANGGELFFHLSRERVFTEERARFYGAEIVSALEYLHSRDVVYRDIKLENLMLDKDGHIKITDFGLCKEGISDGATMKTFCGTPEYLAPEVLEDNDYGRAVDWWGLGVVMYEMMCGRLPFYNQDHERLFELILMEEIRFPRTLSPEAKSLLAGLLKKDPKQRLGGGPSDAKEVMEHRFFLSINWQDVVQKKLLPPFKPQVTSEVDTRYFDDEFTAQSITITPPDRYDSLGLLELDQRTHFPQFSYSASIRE

A word on the IC50: it is the concentration needed to halve the response being measured. Low readings indicate higher potency, high ones lower potency. Regarding `CNCC(c1ccc(Cl)cc1)c1ccc(-c2ncnc3nc[nH]c23)cc1` (configuration not stated) [[2-(4-chlorophenyl)-2-[4-(9H-purin-6-yl)phenyl]ethyl](methyl)amine], the half-maximal inhibitory concentration (IC50) in assay [1] amounted to 0.015 µM; in assay [2], 0.01 µM.
